# In patent publication US4863963A, “Novel cinnamoylamide derivatives” (Ono Pharmaceutical Co., Ltd., priority 1987, dated 1989):
# Target: 5α-reductase
# Assay: Inhibitory activity on 5α-reductase in vitro (conversion of [4-C^14]-testosterone to dihydrotestosterone)
# Assay type: biochemical
# Details: male rat prostate enzyme, 60 mins at 37° C., pH 7.4; compounds of the present invention
# Protocol: Inhibitory activity on 5-reductase in vitro
# The test was carried out with reference to the method of J. Shimazaki et al [See Endocrinol, Japon., 18, 179 (1971)).]
# Male rat's prostate (4 g) was homogenized with its triple volume of 0.1M HEPES buffer (PH 7.4) including 0.25M cane sugar and was centrifuged at 3000 r.p.m. for 10 mins.
# The precipitate was suspended into the buffer solution described above (10 ml), and the suspension was centrifuged at 3000 r.p.m for 5 mins. The resulting precipitate was suspended in the buffer solution(3 ml) described above and was used as a sauce of enzyme.
# A reaction mixture (total volume 0.1 ml) of [4-C^14 ]-testosterone (1.5 n mol, 1.5×10^3 cpm), NADPH (0.5 μmol), enzyme solution (0.03 ml) described above and several kinds of concentration of the compounds in the present invention was incubated for 60 mins at 37° C. Enzyme reaction was quenched by addition of a mixture (0.4 ml) of chloroform and methanol (1:2), and the mixture was centrifuged at 2000 r.p.m for 3 mins. The supernatant (50 μl) was spotted on silica gel thin layer plate. The spot on the plate was developed with a mixture of chloroform, methanol and acetic acid (99.2:0. 6:0.2). Radioactivity of dihydrotestosteron generated on plate was measured by TLC scanner of radio-autography and inhibitory ratio was calculated.
row,IC50,Structure (SMILES)
1,90 nM,"CCCCCOc1c(Cl)cc(/C(C)=C/C(=O)Nc2ccccc2OCCCC(=O)O)cc1Cl [Example 1, 4-[2-(3,5-dichloro-4-pentyloxy-β-methylcinnamoylamino)phenoxy]butanoic acid]"
2,1600 nM,"CCCCCOc1c(OC)cc(/C(C)=C/C(=O)Nc2ccccc2OCCCC(=O)O)cc1OC [Example 1-1, 4-[2-(3,5-dimethoxy-4-pentyloxy-β-methylcinnomoylamino)phenoxyl] butanoic acid]"
3,1800 nM,CCCCCOc1cc(/C(C)=C/C(=O)Nc2ccccc2OCCCC(=O)O)cc(OCCCCC)c1OCCCCC [Example 1-2]
4,2100 nM,"CCCCCOc1c(C)cc(/C(C)=C/C(=O)Nc2ccccc2OCCCC(=O)O)cc1C [Example 1-3, 4-[2-(3,5-dimethyl-4-pentyloxy-β-methylcinnamoylamino)phenoxy] butanoic acid]"
5,1000 nM,"COc1c(C(C)(C)C)cc(/C(C)=C/C(=O)Nc2ccccc2OCCCC(=O)O)cc1C(C)(C)C [Example 1-4, 4-[2-(3,5-di-tert-butyl-methoxy-β-methylcinnamoylamino)phenoxy] butanoic acid]"
6,5600 nM,"CCCCCOc1ccc(/C(C)=C/C(=O)Nc2ccccc2OCCCC(=O)O)c(Cl)c1Cl [Example 1-5, 4-[2-(2,3-dichloro-4-pentyloxy-β-methylcinnomoylamino)phenoxy] butanoic acid]"
7,3300 nM,"CCCOc1cc(/C(C)=C/C(=O)Nc2ccccc2OCCCC(=O)O)cc(OCCC)c1OCCC [Example 1-7, 4-[2-(3,4,5-tripropoxy-β-methylcinnamoylamino)phenoxy] butanoic acid]"
8,1700 nM,CCCCOc1cc(/C(C)=C/C(=O)Nc2ccccc2OCCCC(=O)O)cc(OCCCC)c1OCCCC [Example 1-8]
9,9700 nM,"CCOc1cc(/C(C)=C/C(=O)Nc2ccccc2OCCCC(=O)O)cc(OCC)c1OCC [Example 1-9, 4-[2-(3,4,5-triethoxy-β-methylcinnamoylamino)phenoxy] butanoic acid]"
10,110 nM,"C/C(=C\C(=O)Nc1ccccc1OCCCC(=O)O)c1ccc(CC(C)C)cc1 [Example 1-10, 4-[2-(4-isobutyl-β-methylcinnamoylamino)phenoxy] butanoic acid]"
11,200 nM,"CCCCc1ccc(/C(C)=C/C(=O)Nc2ccccc2OCCCC(=O)O)cc1 [Example 1-11, 4-[2-(4-butyl-β-methylcinnomoylamino)phenoxy] butanoic acid]"
12,260 nM,"CCCc1ccc(/C(C)=C/C(=O)Nc2ccccc2OCCCC(=O)O)cc1 [Example 1-12, 4-[2-(4-propyl-β-methylcinnamoylamino)phenoxy] utanoic acid]"
13,280 nM,"CCC(C)c1ccc(/C(C)=C/C(=O)Nc2ccccc2OCCCC(=O)O)cc1 (stereo not drawn) [Example 1-14, 4-[2-(4-sec-butyl-β-methylcinnomoylamino)phenoxy] butanoic acid]"
14,2200 nM,"CCCCCOc1cc(/C(C)=C/C(=O)Nc2ccccc2OCCCC(=O)O)c([N+](=O)[O-])cc1OCCCCC [Example 1-15, 4-[2-(2-nitro-4,5-dipentyloxy-β-methylcinnomoylamino)phenoxy] butanoic acid]"
15,530 nM,CCCCCOc1cc(/C=C(\C)C(=O)Nc2ccccc2OCCCC(=O)O)cc(OCCCCC)c1OCCCCC [Example 1-16]

row,Structure (SMILES),IC50
1,"CCCCOc1c(Cl)cc(/C(C)=C/C(=O)Nc2ccccc2OCCCC(=O)O)cc1Cl [Example 1-6, 4-[2-(3,5-dichloro-4-butoxy-β-methylcinnamoylamino)phenyoxy] butanoic acid]",1600 nM
2,"CCCCOc1ccc(/C(C)=C/C(=O)Nc2ccccc2OCCCC(=O)O)cc1 [Example 1-13, 4-[2-(4-butoxy-β-methylcinnamoylamino)phenoxy] utanoic acid]",380 nM
